According to patent US7998460B2, “Prevention of deficits in neurogenesis with anti-inflammatory agents” (The Board of Trustees of the Leland Stanford Junior …, priority 2003, dated 2011):
“Also recorded” adds a separate entry of the source.

Legend:
[1] = system: hippocampal neurogenesis; assay: 10 Gy cranial X-irradiation, microglial inflammation and hippocampal neurogenesis at 2 months; type: in vivo, rat
Experimental: Because rats are more radio resistant than humans, 10 Gy approximates a clinically relevant dose and is below the threshold to cause demyelination or overt vasculopathy in rats. This dose of X-irradiation was previously shown to spare roughly 30% of the NPC proliferative activity but completely ablate the production of neurons. X-irradiation was limited to a 1.5 cm cylinder centered over the cranium (remaining body parts were shielded). One month later, BrdU was administered systemically and at 2 months post-irradiation, brain tissues were analyzed for hippocampal neurogenesis.
Control animals were given either vehicle (5% bicarbonate) injections i.p. or plain dog food. To ensure complete consumption of food and medication in the 2 month paradigm, rats were restricted to 80% of their ad lib intake.
Irradiation Adult female Fisher 344 rats were anesthetized with ketamine and xylazine and exposed to cranial irradiation using a Philips orthovoltage X-ray system operated at 200 kVp and 20 mA. A single dose of 10 Gy was delivered to the cranium of each rat with shielding of the body, neck, eyes and snout. Dosimetry was done using TLD dosimeters (K & S Associates, Nashville, Tenn.) buried in the hippocampi, cerebellum, mouth, eyes and ears of euthanized rats. The corrected dose rate was approximately 44.5 cGy/minute. Sham-irradiated controls for all experiments received anesthesia only.
BrdU injections and tissue preparation. Animals were injected intraperitoneally with BrdU once each day for 6 days. Animals were then anesthetized and sacrificed on the 28th day after the initial BrdU injection by transcardial perfusion with 4% paraformaldehyde. Brains were removed and postfixed overnight and then equilibrated in phosphate buffered 30% sucrose. Free floating 40 μm sections were collected on a freezing microtome and stored in cryoprotectant as previously described.
Immunocytochemistry and immunofluorescent staining. […]
Cell counting and unbiased stereology. […] The proportion of BrdU cells displaying a lineage-specific phenotype was determined by scoring the co-localization of cell phenotype markers with BrdU using confocal microscopy. […] When possible, 100 or more BrdU-positive cells were scored for each marker per animal. Each cell was manually examined in its full “z”-dimension and only those cells for which the nucleus was unambiguously associated with the lineage-specific marker were scored as positive. The total number of BrdU-labeled cells per hippocampal granule cell layer and subgranule zone was determined using diaminobenzadine stained tissues. In a separate series, the total number of ED1-labeled cells per dentate gyrus was also determined using diaminobenzadine stained tissue. Stained BrdU-positive nuclei or ED1-positive cells were scored under light microscopy using Microbrightfield Stereo Investigator software and the Fractionator method. Overestimation was corrected using the Abercrombie method for nuclei with empirically determined average diameter of 13 μm within a 40 μm section.

[2] = system: adult hippocampus-derived neural precursor cells; assay: In vitro neuronal differentiation (doublecortin) of hippocampal neural progenitor cells, 60 hours; type: cell-based, rat; settings: 60 hours differentiation
Source text: Neuroinflammation could inhibit neurogenesis by a variety of mechanisms, including stimulation of the HPA axis with subsequent elevation of gluccocorticoids, alterations in the relationships between progenitor cells and cells of the neuro-vasculature, or direct effects of activated microglia on the precursor cells. To determine the extent to which microglial activation might directly affect neural stem/progenitor cells, microglia were stimulated in vitro with LPS. LPS is a potent activator of microglia and up-regulates the elaboration of pro-inflammatory cytokines, including IL-6 and TNF-α. LPS-stimulated or resting microglia were then co-cultured with normal neural stem cells from the hippocampus under conditions that typically stimulate the differentiation of 30 to 40% of the progenitor cells into immature Dcx-expressing neurons (normalized to a value of 1 in FIG. 2A, control). Neurogenesis in the presence of microglia was assessed as the increase or decrease in Dcx-expressing cells relative to control. Co-culture with activated, but not resting, microglia decreased in vitro neurogenesis to approximately half of control levels (FIG. 2A). LPS added directly to precursor cells had no effect on neurogenesis.
To determine if this effect was due to soluble factors or due to cell-cell contact, hippocampal precursor cells were differentiated in the presence of media pre-conditioned by resting or activated microglia.
Activated microglia produce the potent pro-inflammatory cytokines interleukin-1β (IL-1β), tumor necrosis factor-α (TNF-α), interferon-γ (INF-γ) and interleukin-6 (IL-6). Progenitor cells were allowed to differentiate in the presence of each cytokine and the relative expression of Dcx was scored after 60 hours. […] Addition of neutralizing anti-IL-6 antibody to CM from activated microglia was able to fully restore in vitro neurogenesis (FIG. 2A). This implicated IL-6 as a key inhibitor of neurogenesis in microglial CM. […] In contrast to neurogenesis, gliogenesis was unaffected by IL-6 exposure as indicated by the lack of change in the number of cells expressing the astrocyte (glial fibrillary acidic protein, GFAP) or early oligodendrocyte (NG2) markers relative to control cultures (FIG. 2E). The hippocampal precursors used in this study do express the IL-6 receptor, as confirmed by RT-PCR (FIG. 5).
Progenitor Cell Culture Adult hippocampus-derived neural precursor cells were isolated from adult rat hippocampus and cultured as previously described. Briefly, adult female Fisher-344 rats were deeply anesthetized with sodium pentobarbital and were dissected immediately. Hippocampi were enzymatically dissociated with papain (2.5 U/ml; Worthington, Freehold, N.J.)-dispase II (1 U/ml; Boehringer Mannheim, Indianapolis, Ind.)-DNase I (250 U/ml, Worthington) solution. Digested tissue was then washed with DMEM-10% fetal calf serum (FCS) and subsequently mixed with PBS-equilibrated Percoll solution to a final concentration of 35% Percoll. The Percoll solution was made by mixing nine parts of Percoll (Amersham Pharmacia Biotech, Uppsala, Sweden) with one part of 10× PBS. The cell suspension was then fractionated by centrifugation for 10 min at 1000×gravity. Floating myelin and tissue debris were discarded and the cell pellet re-suspended in 65% Percoll solution and fractionated again by centrifugation for 10 min at 1000×g. The floating neural precursors were collected, washed free of Percoll, and plated onto poly-L-ornithine/laminin-coated dishes in DMEM/F12 (1:1) containing 10% FCS medium for 24 hrs; then medium was replaced with serum-free growth medium consisting of DMEM/F12 (1:1) supplemented with N2 supplement (Life Technologies, Gaithersburg, Md.) and 20 ng/ml of human recombinant FGF-2 (Peprotech, Rocky Hill, N.J.). Cell lines were labeled via infection with replication deficient GFP-expressing recombinant retrovirus LZRS-CAMut4GFP. […]

Compound	effect on cell fate in non-irradiated rats ([1]; indomethacin, non-irradiated)	effect on CD11b/NG2+ infiltrating peripheral monocytes ([1]; irradiated, indomethacin 2.5 mg/Kg orally every 12 hours)	proportion of proliferative cells adopting a neuronal fate ([1]; irradiated, indomethacin-treated (untreated irradiated 15%)) [%]	total newborn hippocampal neurons ([1]; irradiated, indomethacin-treated (untreated irradiated 125±25)) [newborn neurons]	total BrdU+ proliferative cells per neurogenic region of the dentate gyrus ([1]; irradiated, indomethacin-treated (untreated irradiated 828±135)) [proliferative cells]	effect on in vitro neurogenesis (Dcx-expressing cells relative to control) [2]
COc1ccc2c(c1)c(CC(=O)O)c(C)n2C(=O)c1ccc(Cl)cc1 [indomethacin]	no effect	particularly effective at decreasing; also recorded: significantly reduced	37	360±68	958±136	–
lipopolysaccharide [LPS]	–	–	–	–	–	no effect
